Laboratory results taken from patent publication US8093299B2, “Methods of treating bowel disorders” (Amgen Inc., priority 2007, dated 2012).
Where “and” joins values, the source holds several entries; their conditions need not be identical. Equal values may be shown once. Read-outs that look alike come from different tables or passages of the source.

Key:
[1] = tested on: rat unstripped colonic sheets (enteric nervous system activity)
[2] = tested on: 5% DSS induced colitis in SJL/J mice; test: DSS-induced colitis in mice, histopathologic inflammation score of large intestine; assay type: in vivo, mouse; details: 5% DSS 9 days, SJL/J mice; oral; Compound B 10 mg/kg, FK 506 1 mg/kg
Text: Animals. Female SJL/J mice aged 8-10 weeks were used for this study, purchased from Jackson Laboratories (Bar Harbour, Me.). Female Spraque-Dawley rats (approximately 150-300 grams) were purchased from Charles River Laboratories Inc. (Wilmington, Mass.). Mdr1a−/− mice (FVB.129P2-Abcb1a^tm1BorN7), weight 20-21 g, 8 weeks at initiation of experiments, were housed and maintained (5 per cage) in the animal facility at Amgen Washington. All animals were cared for according to the standard protocols of the Amgen Institutional Animal Care and Use Committee.
Chemical reagents. Dextran sodium sulfate (DSS) with molecular mass 36-50 kDa was purchased from ICN Chemicals, Aurora, Ohio. The DSS solution was prepared as a 5% w/v solution in sterile water (Baxter Healthcare Corporation) and sterile filtered through a 0.45 μm filter before being added to drinking water. Water for the negative control groups was similarly filtered. FK506, (also known as Tacrolimus, active ingredient in Prograf®), chemical name [3S-[3R*[E(1S*,3S*,4S*)],4S*,5R*,8S*,9E,12R*,14R*,15S*,16R*,18S*,19S*,26aR*]]-5,6,8,11,12,13,14,15,16,17,18,19,24,25,26,26a-hexadecahydro-5,19-dihydroxy-3-[2-(4-hydroxy-3-methoxycyclohexyl)-1-methylethenyl]-14,16-dimethoxy-4,10,12,18-tetramethyl-8-(2-propenyl)-15,19-epoxy-3H-pyrodi[2,1-c][1,4]oxaazacyclotricosine-1,7,20,21(4H, 23H)-tetrone monohydrate, was used as a positive control for the inflammation treatment. Tacrolimus is a macrolide immunosuppressant produced by Streptomyces tsukubaensis. The solution of FK506 (Prograf®, Astellas) was prepared as follows: 0.1 mg/ml solution in phosphate buffered saline (PBS) was prepared by diluting 5 mg/ml stock solution. The animals were dosed with FK506 at 1 mg/kg in 200 μl of PBS.
Calcimimetic solutions (Compound A, 3-(2-chlorophenyl)-N-((1R)-1-(3-(methyloxy)phenyl)ethyl)-1-propanamine, Compound B, (1R)-N-((6-(methyloxy)-4′-(trifluoromethyl)-3-biphenylyl)methyl)-1-phenylethanamine, Compound C, N-(2-chloro-5-((((1R)-1-phenylethyl)amino)methyl)phenyl)-5-methyl-3-isoxazolecarboxamide, and Compound D, N-(2-chloro-5-((((1R)-1-phenylethyl)amino)methyl)phenyl)-2-pyridinecarboxamide) were formulated and dosed in free base equivalents at volumes determined by the pharmacologist. Formulation vehicle was 20% (w/v) Captisol (β-Cyclodextrin Sulfobutyl Ether Sodium Salt, Research Grade from CyDex, Inc.) in water with a final pH of 2.0-2.2 at room temperature, adjusted with HCl and NaOH as required. Final concentrations of DMSO never exceeded 0.1% (v/v).
DSS colitis in mice. All experiments were performed on groups of 8 to 10 SJL-J mice, housed in the same cage. For disease induction, mice were given a 5% DSS ad libitum as drinking water for 9 days.
Postmortem evaluation. Mice and rats were euthanized by CO2 asphyxiation. The large intestine were removed from the carcass, evaluated for gross lesions and three individual non-adjacent segments of proximal, middle and distal large intestine 2 centimeters long were immersed in the Zinc Formalin fix for 24 hours. At the end of 24 hours the sections were washed with tap water and put into 70% ethanol. Each section was then cut into three 3 mm pieces (9 pieces per animal), processed into paraffin blocks, and sections were cut in 5 μm sections and stained with hematoxylin and eosin.
Histopathologic changes of the proximal, middle, and distal small and large intestine was scored as a global assessment of inflammation based on inflammatory infiltrate, edema, mucosal erosions or ulcerations as described in Table 6.
For disease induction, treated mice were given 5% DSS in water ad libitum as drinking water for 9 days as described in Example 1 and were concurrently treated orally during that period with one of the treatments listed in Table 8.
FIG. 1 and Table 8 summarize the effect of the calcimimetic compound B on colonic inflammation in 5% DSS induced colitis. Animals were euthanized with carbon dioxide on day nine post treatment. […]

[3] = tested on: colitis in mdr1a-/- mice induced by H. bilis; test: Colitis in mdr1a-/- mice infected with Helicobacter bilis (clinical score, disease onset, histology); assay type: in vivo, mouse
[4] = Serum calcium and phosphorus in mdr1a-/- colitis study; assay type: in vivo, mouse; details: 10 mg/kg PO daily; day 38
Procedure: (§1) All mice were necropsied on day 38 post initial inoculation. Mice were euthanized by CO2 asphyxiation. Blood was obtained by intracardiac puncture and collected in serum separator tubes. Serum was harvested and stored at −80° C. Colons were dissected below the cecum and just above the anus, and the contents of the lumen were removed. Sections of the proximal, middle, and distal colon regions were fixed in 10% neutral buffered formalin for histopathological analysis.
(§2) Serum clinical chemistry analysis was performed on the Olympus AU400 using standard tests and protocols. Calcium and phosphorus measurements were performed on undiluted serum for all samples. Serum cytokines and chemokines were assayed by Lincoplex mouse cytokine/chemokine muliplex immunoassasy (Millipore; Billerica, Mass.) per manufacturer instructions.
(§3) Results for serum analytes were expressed as the mean±standard error of the mean (SEM). A one-way ANOVA with Tukey's post test was performed using GraphPad Prism. A p-value of 0.05 was used in the calculation to determine whether there were significant differences between any two groups. Results for disease onset were expressed as a standard survival curve. A Log-Rank (Mantel-Cox) Test was performed using GraphPad Prism to determine significance. A p-value of 0.05 was used in the calculation to determine whether there were significant differences between any two groups. Results for clinical score and histology score were expressed as the mean±SEM. A Cochran-Mantel-Haenszel mean score test was performed using SAS software. A p-value of 0.05 was used in the calculation to determine whether there were significant differences between any two groups.

IP-10 = test: Serum IP-10 in mdr1a-/- colitis study; assay type: in vivo, mouse; details: treatment groups vs vehicle treated animals
Procedure: as §1, §2, §3

[5] = Compound A 10 μM, bumetanide 100 μM, proximal and distal colon
[6] = 10 mg/kg PO daily, day 38, score 0-4

Question: Which results are given for `COc1cccc([C@@H](C)NCCCc2ccccc2Cl)c1` [Compound A, 3-(2-chlorophenyl)-N-((1R)-1-(3-(methyloxy)phenyl)ethyl)-1-propanamine]?
Answer: short-circuit current, subsequent addition after 2 μM TTX [1, 5]: no additional effect; secretory short-circuit current, agent added first ([1]; over 15 minutes, proximal and distal colon, TTX 2 μM, Compound A 10 μM): inhibited the secretory short-circuit current

Question: What does the source list for `CCCCNc1cc(C(=O)O)cc(S(N)(=O)=O)c1Oc1ccccc1` [bumetanide, Bumetanide]?
Answer: short-circuit current, subsequent addition after 2 μM TTX [1, 5]: no additional effect; short-circuit current, subsequent addition after 10 μM Compound A ([1]; TTX 2 μM, bumetanide 100 μM, proximal and distal colon): no additional effect

Question: Which “secretory short-circuit current, agent added first” value [1] does the source give for `NC1=N[C@H](O)[C@H]2[C@H]3O[C@]4(O)O[C@@H]([C@@H](O)[C@@]2(N1)[C@@H]4O)[C@]3(O)CO` [TTX, Tetrodotoxin] here?
Answer: The value was “inhibited the secretory short-circuit current”.

Question: And the “short-circuit current, subsequent addition after 10 μM Compound A” value [1]?
Answer: Its value is “no additional effect”.

Question: With `C=CC[C@@H]1/C=C(\C)C[C@H](C)C[C@H](OC)[C@H]2O[C@@](O)(C(=O)C(=O)N3CCCC[C@H]3C(=O)O[C@H](/C(C)=C/[C@@H]3CC[C@@H](O)[C@H](OC)C3)[C@H](C)[C@@H](O)CC1=O)[C@H](C)C[C@@H]2OC` (relative stereo) [FK 506, [3S-[3R*[E(1S*,3S*,4S*)],4S*,5R*,8S*,9E,12R*,14R*,15S*,16R*,18S*,19S*,26aR*]]-5,6,8,11,12,13,14,15,16,17,18,19,24,25,26,26a-hexadecahydro-5,19-dihydroxy-3-[2-(4-hydroxy-3-methoxycyclohexyl)-1-methylethenyl]-14,16-dimethoxy-4,10,12,18-tetramethyl-8-(2-propenyl)-15,19-epoxy-3H-pyrodi[2,1-c][1,4]oxaazacyclotricosine-1,7,20,21(4H, 23H)-tetrone monohydrate, reference compound] as the molecule, how does the “Animals with colonic inflammation/total animals” value [2] read?
Answer: The value was 10/10.

Question: With `COc1ccc(CN[C@@H](C)c2ccccc2)cc1-c1ccc(C(F)(F)F)cc1` [S-Compound B] as the molecule, how does the “day on which animals began showing clinical symptoms (disease onset)” value ([3]; 10 mg/kg PO daily) read?
Answer: The value was 27 days.

Question: And the “number of animals with clinical signs of disease at onset day” value ([3]; 10 mg/kg PO daily, day 27, n=5)?
Answer: The value was “two”.

Question: What about the “Average LI score” value ([3]; 10 mg/kg PO daily, day 38) of the same molecule?
Answer: The value was 1.8.

Question: What about the “GI Inflammation LI DISTAL, Segment Mean” value ([3]; 10 mg/kg PO daily, day 38) of the same molecule?
Answer: Its value is 0.60.

Question: And the “GI Inflammation LI MIDDLE, Segment Mean” value ([3]; 10 mg/kg PO daily, day 38)?
Answer: Its value is 0.60.

Question: What about the “GI Inflammation LI PROXIMAL, Segment Mean” value ([3]; 10 mg/kg PO daily, day 38) of the same molecule?
Answer: Its value is 0.60.

Question: What about the “Total LI score (Max = 12), individual animals” value ([3]; 10 mg/kg PO daily, day 38) of the same molecule?
Answer: The value was 0 (4×) and 9.

Question: And the “GI Inflammation LI DISTAL, individual animals” value [3, 6]?
Answer: The value was 0 (4×) and 3.

Question: And the “GI Inflammation LI MIDDLE, individual animals” value [3, 6]?
Answer: Its value is 0 (4×) and 3.

Question: What about the “GI Inflammation LI PROXIMAL, individual animals” value [3, 6] of the same molecule?
Answer: Its value is 0 (4×) and 3.

Question: And the “clinical score of the animal with clinical symptoms (max 8)” value ([3]; 10 mg/kg PO daily, final day)?
Answer: Its value is 4.

Question: And the “total large intestine (LI) scores of the colitic animals (max 12)” value ([3]; R-Compound B 10 and 3 mg/kg groups, S-Compound B 10 mg/kg)?
Answer: The value was 9.

Question: What about the “number of animals with clinical symptoms of disease on the final day of the study” value ([3]; day 38, per treatment group (S-Compound B 10 mg/kg, n=5; R-Compound B 10 mg/kg and 3 mg/kg, n=10 each)) of the same molecule?
Answer: The value was “one”.

Question: And the “animals with colitis / colon pathology by histology” value ([3]; per group: R-Compound B 10 and 3 mg/kg each, S-Compound B 10 mg/kg)?
Answer: Its value is 1 out of 5.

Question: And the “serum calcium levels compared to any other group” value [4]?
Answer: The value was “not statistically different”.

Question: And the “serum phosphorus compared to CTLA4 treated animals” value [4]?
Answer: Its value is “significant reduction”.

Question: What about the “elevation of serum IP-10” value (IP-10) of the same molecule?
Answer: Its value is “less elevation”.
